For one data set, the target named is T1, B7-1/CD28 (Homo sapiens, UniProt P33681).
T1 sequence (P33681 35-242 limits assumed): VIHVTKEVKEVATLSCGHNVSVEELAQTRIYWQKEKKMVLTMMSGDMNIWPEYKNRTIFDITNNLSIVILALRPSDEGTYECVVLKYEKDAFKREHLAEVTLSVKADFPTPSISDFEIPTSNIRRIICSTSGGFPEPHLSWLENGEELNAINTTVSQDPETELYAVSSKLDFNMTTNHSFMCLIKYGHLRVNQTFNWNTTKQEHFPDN
Kind of data set: CD28/B7-1 ELISA (B7-1/CD28 binding inhibition). Conditions: CD28-Fc coated wells; B7-1-Fc-biotin/streptavidin-alkaline phosphatase detection complex; 1% DMSO. The procedure:
Evaluation of B7-1/CD28 Binding Inhibition for Test Compounds
Wells are coated with 300 ng CD28-Fc in carbonate buffer (pH 9.4) overnight at 4° C., blocked with 1% bovine serum albumin in tris-buffered saline (TBS) for 1 h at 22° C. and washed 3 times in TBS prior to assay. The detection complex is formed as follows: B7-1-Fc-biotin, prepared using NHS-LC-biotin (Pierce #21335) according to the manufacturers instructions (4.1 moles biotinimole Fc), is added at 0.8 ug/ml to streptavidin-alkaline phosphatase (Caltag Sa1008) at 1:1000 in TBS. A solution of test compound in dimethylsulfoxide (1% final) are added to this complex and incubated 30 min at 22° C. Detection complex (+/−inhibitors) is then added to the CD28 coated wells for 25 min at 22° C., washed 5 times with TBS, developed with the colorimetric substrate pNPP (Pierce #34045) in diethanolamine/MgCl2 buffer (pH 9.5) and read at 405 nm. The inhibition constant (IC50) is calculated by subtracting background binding and comparing to uninhibited (DMSO alone) controls. The inhibition constant represents the concentration of test compound required to achieve 50% inhibition.

Experimental findings from US6734190B2, “Dihydrodipyrazolopyridinylbenzamide and -sulfonamide inhibitors of B7-1” (Wyeth, priority 2002, dated 2004) are described below.

Usually IC50 stands for the concentration at which inhibition is half-maximal. A low value points to greater potency in that assay. As usually defined, the melting point is the temperature of the solid-liquid transition.

`Cn1ncc2c3[nH]n(-c4cccc(C(=O)N5CCCC5)c4)c(=O)c3c(-c3cccc(C(F)(F)F)c3)nc21` [Example 11, 6-methyl-2-[3-(1-pyrrolidinylcarbonyl)phenyl]-4-[3-(trifluoromethyl)phenyl]-1,6-dihydrodipyrazolo[3,4-b:3,4-d]pyridin-3(2H)-one] came in with a melting point of 255 to 258 °C. Also, the IC50 at B7-1/CD28 is 44 nM. In the same order, the values of `Cn1ncc2c3[nH]n(-c4cccc(C(=O)N5CCC[C@@H]5C(=O)O)c4)c(=O)c3c(-c3cccc(C(F)(F)F)c3)nc21` [Example 13, (2R)-1-[3-(6-methyl-3-oxo-4-[3-(trifluoromethyl)phenyl]-3,6-dihydrodipyrazolo[3,4-b:3,4-d]pyridin-2(1H)-yl)benzoyl]-2-pyrrolidinecarboxylic acid] are 199 to 202 °C and 20 nM. In the same order, the values of `Cn1ncc2c3[nH]n(-c4cccc(C(=O)NCc5ccc(N)cc5)c4)c(=O)c3c(-c3cccc(C(F)(F)F)c3)nc21` [Example 16] are 183 °C (dec.) and 57 nM. For the molecule `COc1cc(CNC(=O)c2cccc(-n3[nH]c4c(c(-c5cccc(C(F)(F)F)c5)nc5c4cnn5C)c3=O)c2)ccc1O` [Example 17], the melting point lay within 172 to 176 °C. The molecule further came in with an IC50 at B7-1/CD28 of 55 nM. In the same order, the values of `Cn1ncc2c3[nH]n(-c4cccc(C(=O)NCc5ccc(O)c(O)c5)c4)c(=O)c3c(-c3cccc(C(F)(F)F)c3)nc21` [Example 18, N-(3,4-dihydroxybenzyl)-3-(6-methyl-3-oxo-4-[3-(trifluoromethyl)phenyl]-3,6-dihydrodipyrazolo[3,4-b:3,4-d]pyridin-2(1H)-yl)benzamide] are 177.7 to 179.8 °C and 9 nM. For `Cn1ncc2c3[nH]n(-c4ccc(Cl)c(C(=O)NCc5ccc(O)c(O)c5)c4)c(=O)c3c(-c3cccc(C(F)(F)F)c3)nc21` [Example 21] the same measures were 212 to 215 °C and 22 nM. In the same order, the values of `Cn1ncc2c3[nH]n(-c4ccc(Cl)c(C(=O)N5CCC[C@@H]5C(=O)O)c4)c(=O)c3c(-c3cccc(C(F)(F)F)c3)nc21` [Example 22, 1-{2-chloro-5-[6-methyl-3-oxo-4-[3-(trifluoromethyl)pheny]-3,6-dihydrodipyrazolo[3,4-b:3′,4′-d]pyridin-2(1H)-yl]benzoyl}-D-proline] are 214 to 218 °C and 44 nM. The molecule `CC(O)c1cccc(NC(=O)c2ccc(-n3[nH]c4c(c(-c5cccc(C(F)(F)F)c5)nc5c4cnn5C)c3=O)cc2F)c1` (stereo not shown) [Example 24] yielded a melting point of over 350 °C. The IC50 at B7-1/CD28 was found to be 110 nM.

On to `CC(O)c1cccc(NC(=O)c2ccc(-n3[nH]c4c(c(-c5cccc(C(F)(F)F)c5)nc5c4cnn5C)c3=O)cc2)c1` (stereo not shown) [Example 25], for which the melting point is 251 to 254 °C. This molecule displayed an IC50 on B7-1/CD28 of 3 nM. In the same order, the values of `COC(=O)C1CCN(C(=O)c2ccc(-n3[nH]c4c(c(-c5cccc(C(F)(F)F)c5)nc5c4cnn5C)c3=O)cc2)CC1` [Example 26] are 187 °C (dec.) and 90 nM. With `CN1CCN(C(=O)c2ccc(-n3[nH]c4c(c(-c5cccc(C(F)(F)F)c5)nc5c4cnn5C)c3=O)cc2)CC1` [Example 27], the melting point is 191 to 194 °C. The molecule also returned an IC50 on B7-1/CD28 of 500 nM.

With `Cn1ncc2c3[nH]n(-c4ccc(C(=O)NCCCO)cc4)c(=O)c3c(-c3cccc(C(F)(F)F)c3)nc21` [Example 28], the melting point was in the range of 193 to 195 °C. Moreover, the IC50 at B7-1/CD28 is 98 nM. Regarding `COCc1cccc(NC(=O)c2ccc(-n3[nH]c4c(c(-c5cccc(C(F)(F)F)c5)nc5c4cnn5C)c3=O)cc2)c1` [Example 29], the melting point was 210 °C (dec.). In addition, the IC50 on B7-1/CD28 stood at 110 nM.

Turning to `Cn1ncc2c3[nH]n(-c4ccc(C(=O)N5CCOCC5)c(F)c4)c(=O)c3c(-c3cccc(C(F)(F)F)c3)nc21` [Example 30], the melting point lay in the range of 176 to 179 °C. In addition, the IC50 at B7-1/CD28 was found to be 310 nM.

`COC(CN(C)C(=O)c1ccc(-n2[nH]c3c(c(-c4cccc(C(F)(F)F)c4)nc4c3cnn4C)c2=O)cc1)OC` [Example 80] showed an IC50 on B7-1/CD28 of 170 nM. Same read-out and setting: then `Cn1ncc2c3[nH]n(-c4ccc(C(=O)N5CCCC5)cc4)c(=O)c3c(-c3cccc(C(F)(F)F)c3)nc21` [Example 81], with 110 nM; and `Cn1ncc2c3[nH]n(-c4ccc(C(=O)Nc5ccc(F)c(F)c5)cc4)c(=O)c3c(-c3cccc(C(F)(F)F)c3)nc21` [Example 82], with 120 nM. On B7-1/CD28, `Cn1ncc2c3[nH]n(-c4ccc(C(=O)N5CCSC5)cc4)c(=O)c3c(-c3cccc(C(F)(F)F)c3)nc21` [Example 83] yielded an IC50 of 110 nM. Take `Cc1c(CO)cccc1NC(=O)c1ccc(-n2[nH]c3c(c(-c4cccc(C(F)(F)F)c4)nc4c3cnn4C)c2=O)cc1` [Example 84]: the IC50 on B7-1/CD28 is 90 nM. Still for that read-out and setting: then `CN(CCC(N)=O)C(=O)c1ccc(-n2[nH]c3c(c(-c4cccc(C(F)(F)F)c4)nc4c3cnn4C)c2=O)cc1` [Example 85], with 1800 nM; and `Cn1ncc2c3[nH]n(-c4ccc(C(=O)Nc5ccccc5CO)cc4)c(=O)c3c(-c3cccc(C(F)(F)F)c3)nc21` [Example 86], with 40 nM; and `Cn1ncc2c3[nH]n(-c4ccc(C(=O)Nc5ccc(CO)cc5)cc4)c(=O)c3c(-c3cccc(C(F)(F)F)c3)nc21` [Example 87], with 44 nM. Still for that read-out and setting: then `CCN(CC)C(=O)C1CCCN(C(=O)c2ccc(-n3[nH]c4c(c(-c5cccc(C(F)(F)F)c5)nc5c4cnn5C)c3=O)cc2)C1` (stereo not shown) [Example 88], with 290 nM; and `CN(C)CCCNC(=O)c1ccc(-n2[nH]c3c(c(-c4cccc(C(F)(F)F)c4)nc4c3cnn4C)c2=O)cc1` [Example 90], with 160 nM; and `Cn1ncc2c3[nH]n(-c4ccc(C(=O)NCc5ccc(F)cc5)cc4)c(=O)c3c(-c3cccc(C(F)(F)F)c3)nc21` [Example 91], with 67 nM. The same measure, in the same setting: then `Cn1ncc2c3[nH]n(-c4ccc(C(=O)N5CCC(O)CC5)cc4)c(=O)c3c(-c3cccc(C(F)(F)F)c3)nc21` [Example 94], with 1200 nM; and `Cn1ncc2c3[nH]n(-c4ccc(C(=O)N5CCCC(O)C5)cc4)c(=O)c3c(-c3cccc(C(F)(F)F)c3)nc21` (stereo not shown) [Example 95], with 390 nM.

`Cn1ncc2c3[nH]n(-c4ccc(C(=O)NCCCCCO)cc4)c(=O)c3c(-c3cccc(C(F)(F)F)c3)nc21` [Example 96] registered an IC50 on B7-1/CD28 of 92 nM. `CCC(O)c1cccc(NC(=O)c2ccc(-n3[nH]c4c(c(-c5cccc(C(F)(F)F)c5)nc5c4cnn5C)c3=O)cc2)c1` (stereo not shown) [Example 100] displayed an IC50 on B7-1/CD28 of 800 nM.

On B7-1/CD28, `Cn1ncc2c3[nH]n(-c4ccc(S(=O)(=O)NCCCCCO)cc4)c(=O)c3c(-c3cccc(C(F)(F)F)c3)nc21` [Example 102, N-(5-Hydroxypentyl)-4-{6-methyl-3-oxo-4-[3-(trifluoromethyl)phenyl]-3,6-dihydrodipyrazolo[3,4-b:3′,4′-d]pyridin-2(1H)-yl}benzenesulfonamide] returned an IC50 of 670 nM. `Cn1ncc2c3[nH]n(-c4ccc(S(=O)(=O)NCc5ccccc5)cc4)c(=O)c3c(-c3cccc(C(F)(F)F)c3)nc21` [Example 103, N-benzyl-4-[6-methyl-3-oxo-4-(3-trifluoromethyl-phenyl)-3,6-dihydro-1H-1,2,5,6,7-pentaaza-as-indacen-2-yl]-benzenesulfonamide] showed an IC50 at B7-1/CD28 of 1500 nM.

For the molecule `Cn1ncc2c3[nH]n(-c4ccc(S(=O)(=O)NCCO)cc4)c(=O)c3c(-c3cccc(C(F)(F)F)c3)nc21` [Example 104, N-(2-hydroxyethyl)-4-(6-methyl-3-oxo-4-[3-(trifluoromethyl)phenyl]-3,6-dihydrodipyrazolo[3,4-b:3,4-d]pyridin-2(1H)-yl)benzenesulfonamide], on B7-1/CD28, the IC50 turned out to be 950 nM. The molecule `COC(=O)CNS(=O)(=O)c1ccc(-n2[nH]c3c(c(-c4cccc(C(F)(F)F)c4)nc4c3cnn4C)c2=O)cc1` [Example 105, methyl ({[4-(6-methyl-3-oxo-4-[3-(trifluoromethyl)phenyl]-3,6-dihydrodipyrazolo[3,4-b:3,4-d]pyridin-2(1H)-yl)phenyl]sulfonyl}amino)acetate] displayed an IC50 on B7-1/CD28 of 340 nM. On B7-1/CD28, `Cn1ncc2c3[nH]n(-c4ccc(S(=O)(=O)NCC5CC5)cc4)c(=O)c3c(-c3cccc(C(F)(F)F)c3)nc21` [Example 106, N-cyclopropylmethyl-4-[6-methyl-3-oxo-4-(3-trfluoromethyl-phenyl)-3,6-dihydro-1H-1,2,5,6,7-pentaaza-as-indacen-2-yl]-benzenesulfonamide] yielded an IC50 of 900 nM. Same read-out and setting: then `Cn1ncc2c3[nH]n(-c4ccc(S(=O)(=O)NCC(=O)O)cc4)c(=O)c3c(-c3cccc(C(F)(F)F)c3)nc21` [Example 107, ({[4-(6-methyl-3-oxo-4-[3-(trifluoromethyl)phenyl]-3,6-dihydrodipyrazolo[3,4-b:3,4-d]pyridin-2(1H)-yl)phenyl]sulfonyl}amino)acetic acid], with 450 nM.
